# ChEMBL document CHEMBL1201862, “PubChem BioAssay data set” (2004)
# Activity calls are given as the source filed them.
# Tests used:
# cells [1] = type: functional, cell-based
# cells [2] = type: functional, cell-based; remark: listed apart in the source
# Protein RecA = molecular target: T1, Protein RecA (Mycobacterium tuberculosis, UniProt P9WHJ3); assay: Fluorescence Cell-Free Homogeneous Dose Retest to Identify Inhibitors of RecA-Intein Splicing Activity. [Related pubchem assays (depositor defined):AID2097, AID2223, AID489010, AID492950]; type: functional
# T1 sequence (P9WHJ3 whole entry): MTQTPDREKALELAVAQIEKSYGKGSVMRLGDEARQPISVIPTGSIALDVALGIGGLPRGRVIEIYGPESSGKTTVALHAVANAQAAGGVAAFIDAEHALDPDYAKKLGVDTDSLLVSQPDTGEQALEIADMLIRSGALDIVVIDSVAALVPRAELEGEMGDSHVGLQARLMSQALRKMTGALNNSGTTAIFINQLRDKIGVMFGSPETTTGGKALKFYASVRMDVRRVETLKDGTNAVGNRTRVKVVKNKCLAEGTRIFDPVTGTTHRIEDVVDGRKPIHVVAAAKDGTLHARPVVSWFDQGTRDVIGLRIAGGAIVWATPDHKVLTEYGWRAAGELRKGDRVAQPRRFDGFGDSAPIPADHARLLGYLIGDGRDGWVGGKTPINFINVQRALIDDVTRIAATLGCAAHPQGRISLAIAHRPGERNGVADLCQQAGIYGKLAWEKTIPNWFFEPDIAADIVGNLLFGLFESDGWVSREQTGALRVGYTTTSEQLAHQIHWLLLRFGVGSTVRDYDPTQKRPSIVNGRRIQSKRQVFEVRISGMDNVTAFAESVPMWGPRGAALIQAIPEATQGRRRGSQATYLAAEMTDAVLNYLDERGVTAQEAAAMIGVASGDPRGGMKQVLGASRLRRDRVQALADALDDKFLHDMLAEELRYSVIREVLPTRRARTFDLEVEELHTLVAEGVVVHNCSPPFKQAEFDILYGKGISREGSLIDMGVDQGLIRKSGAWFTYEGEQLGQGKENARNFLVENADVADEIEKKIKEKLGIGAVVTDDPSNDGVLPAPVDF
# [3] = molecular target: T2, Apoptotic protease-activating factor 1 (Homo sapiens, UniProt O14727); type: functional
# T2 sequence (O14727 whole entry): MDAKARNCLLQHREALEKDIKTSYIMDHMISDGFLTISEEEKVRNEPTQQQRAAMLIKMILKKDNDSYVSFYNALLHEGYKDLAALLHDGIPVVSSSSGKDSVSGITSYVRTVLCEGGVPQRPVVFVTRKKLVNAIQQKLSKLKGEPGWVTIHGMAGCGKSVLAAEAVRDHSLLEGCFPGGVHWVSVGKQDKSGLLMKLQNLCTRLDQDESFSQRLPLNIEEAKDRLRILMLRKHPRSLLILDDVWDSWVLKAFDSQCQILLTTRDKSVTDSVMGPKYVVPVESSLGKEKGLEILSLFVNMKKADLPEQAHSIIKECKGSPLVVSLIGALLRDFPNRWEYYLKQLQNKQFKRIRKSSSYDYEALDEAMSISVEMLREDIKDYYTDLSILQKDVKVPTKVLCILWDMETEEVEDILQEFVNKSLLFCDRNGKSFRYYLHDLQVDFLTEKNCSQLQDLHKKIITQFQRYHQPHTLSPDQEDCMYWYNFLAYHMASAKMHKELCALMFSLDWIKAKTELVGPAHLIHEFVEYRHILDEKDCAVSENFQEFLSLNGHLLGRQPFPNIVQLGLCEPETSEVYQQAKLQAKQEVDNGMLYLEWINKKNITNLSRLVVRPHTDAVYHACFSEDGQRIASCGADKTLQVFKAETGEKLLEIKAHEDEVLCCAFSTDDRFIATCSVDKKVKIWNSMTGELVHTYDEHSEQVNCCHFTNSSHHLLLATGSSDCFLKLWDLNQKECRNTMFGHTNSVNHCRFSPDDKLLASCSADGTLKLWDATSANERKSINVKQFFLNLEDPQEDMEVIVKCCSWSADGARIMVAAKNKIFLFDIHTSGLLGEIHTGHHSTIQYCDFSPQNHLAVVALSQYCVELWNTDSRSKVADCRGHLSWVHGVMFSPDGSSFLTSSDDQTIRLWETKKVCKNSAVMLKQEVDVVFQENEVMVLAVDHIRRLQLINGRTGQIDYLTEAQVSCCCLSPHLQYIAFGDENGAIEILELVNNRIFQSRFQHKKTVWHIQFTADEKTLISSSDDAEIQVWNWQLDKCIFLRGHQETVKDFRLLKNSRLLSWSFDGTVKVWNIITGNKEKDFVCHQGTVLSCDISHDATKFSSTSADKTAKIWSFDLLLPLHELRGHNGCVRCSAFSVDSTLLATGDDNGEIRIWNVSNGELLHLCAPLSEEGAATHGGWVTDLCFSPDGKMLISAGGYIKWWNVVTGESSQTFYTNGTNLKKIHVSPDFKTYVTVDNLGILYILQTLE
# [4] = molecular target: T3, Replicative DNA helicase DnaB (Mycobacterium tuberculosis, UniProt P9WMR3); assay: DnaB intein splicing inhibitors, dose response, biochemical, cell-free fluorescence (AID 449749); type: functional
# T3 sequence (P9WMR3 whole entry): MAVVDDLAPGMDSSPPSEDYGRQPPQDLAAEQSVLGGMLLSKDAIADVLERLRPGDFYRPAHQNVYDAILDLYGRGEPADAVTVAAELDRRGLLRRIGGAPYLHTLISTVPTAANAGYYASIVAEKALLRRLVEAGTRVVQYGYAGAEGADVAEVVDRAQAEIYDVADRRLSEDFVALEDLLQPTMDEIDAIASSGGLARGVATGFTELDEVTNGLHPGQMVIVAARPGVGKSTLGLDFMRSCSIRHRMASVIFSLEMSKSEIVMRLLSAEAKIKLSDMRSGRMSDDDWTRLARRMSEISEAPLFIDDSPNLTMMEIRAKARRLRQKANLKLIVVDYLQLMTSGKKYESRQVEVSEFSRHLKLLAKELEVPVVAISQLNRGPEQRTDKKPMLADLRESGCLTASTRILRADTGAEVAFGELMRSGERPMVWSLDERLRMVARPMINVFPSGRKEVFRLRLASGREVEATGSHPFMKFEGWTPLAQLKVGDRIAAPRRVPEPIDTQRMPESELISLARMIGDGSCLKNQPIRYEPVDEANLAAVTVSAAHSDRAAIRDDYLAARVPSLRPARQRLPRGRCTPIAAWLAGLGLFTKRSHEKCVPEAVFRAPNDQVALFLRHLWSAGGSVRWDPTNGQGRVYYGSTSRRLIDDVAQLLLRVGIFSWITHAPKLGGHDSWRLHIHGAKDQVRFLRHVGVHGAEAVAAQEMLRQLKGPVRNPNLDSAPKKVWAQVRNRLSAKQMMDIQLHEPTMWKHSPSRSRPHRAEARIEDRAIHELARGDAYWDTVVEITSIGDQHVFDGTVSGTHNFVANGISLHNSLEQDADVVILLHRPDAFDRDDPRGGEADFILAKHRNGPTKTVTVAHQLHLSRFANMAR
# [5] = ZM109 Env clade C HIV-1 fusion inhibitors, dose response, HeLa effector, CEM target cells, luciferase, cherry-pick (AID 652058); type: functional, cell-based
# [6] = inhibitors of HIV Env-driven cell fusion, dose response, cherry-pick (AID 652057); type: functional, cell-based
# [7] = off-target signal loss in HeLa-CEM21 co-culture – HeLa F-luc CTL cells, cherry-picked, counter-screen for HIV-1 Env fusion inhibitor project, dose response (AID 652040); type: functional, cell-based;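 note: potency for signal decrease marking cytotoxic or nonspecific inhibition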
# [8] = inhibitors of clade B AD8 Env fusion, dose response, cell-based, cherry-pick (AID 652062); type: functional;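 note: luciferase signal from cell-cell fusion driven by HIV-1 clade B AD8 Env; potency is for inhibitors of fusion seen as a drop in luminescence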
# Fatty acid synthase [9] = molecular target: T4, Fatty acid synthase (Homo sapiens, UniProt P49327); assay: FAS thioesterase domain inhibitors, dose response, biochemical, endpoint fluorescence intensity, uHTS hits (AID 624327); type: functional;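 note: fluorescence from hydrolysis of an O-methyl fluorescein acyl ester substrate by the enzyme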
# Fatty acid synthase [10] = molecular target: T4, Fatty acid synthase; assay: FAS thioesterase domain inhibitors, dose response, biochemical, kinetic fluorescence intensity (AID 624326); type: functional;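 note: rate of fluorescence rise from hydrolysis of a fluorogenic O-methyl fluorescein ester substrate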
# [11] = Luminescence Cell-Based Dose Retest to Confirm Inhibitors of Cancer Stem Cells. [Related pubchem assays (depositor defined):AID2717, AID2721]; type: functional; conditions: Homo sapiens
# [12] = Luminescence Cell-Based Dose Response HTS to Identify Inhibitors of 5'UTR Stem-Loop Driven Prion Protein mRNA Translation in H4 Neuroglioblastoma Cells. [Related pubchem assays: 1827 (Project Summary), 1813 (Primary HTS)]; type: functional
# [13] = control 3'UTR Renilla luciferase suppression, dose response, counter-screen for Shn3 inhibitor project, cell-based, Clone20-Shn3RL, cherry-picked (AID 624133); type: functional
# [14] = inhibitors of firefly luciferase expression or activity, dose response, H4 neuroglioma cells, luminescence (AID 1990); type: functional, cell-based
# [15] = CEM21 lymphoblast cell cytotoxicity, dose response, cytotoxicity control for viral fusion inhibitor project, CellTiter-Glo luminescence, cherry-picked (AID 652042); type: functional, cell-based;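 note: potency for signal decrease meaning cytotoxicity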
# [16] = HepG2 cell cytotoxicity, dose response, cytotoxicity control for Shn3 inhibitor project, CellTiter-Glo, cherry-picked (AID 624134); type: functional, cell-based
# [17] = inhibitors of SNCA 5'UTR-driven reporter translation, confirmation, H4 neuroglioma cells, luminescence (AID 1988); type: functional, cell-based
# [18] = Shn3 3'UTR reporter inhibitors, dose response, cell-based, Clone20 osteoblasts, firefly luciferase, cherry-picked (AID 624132); type: functional;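 note: firefly luciferase luminescence from reporter carrying the Shn3 3'UTR in osteoblasts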
# T4 sequence (P49327 whole entry, the tested form may be a part): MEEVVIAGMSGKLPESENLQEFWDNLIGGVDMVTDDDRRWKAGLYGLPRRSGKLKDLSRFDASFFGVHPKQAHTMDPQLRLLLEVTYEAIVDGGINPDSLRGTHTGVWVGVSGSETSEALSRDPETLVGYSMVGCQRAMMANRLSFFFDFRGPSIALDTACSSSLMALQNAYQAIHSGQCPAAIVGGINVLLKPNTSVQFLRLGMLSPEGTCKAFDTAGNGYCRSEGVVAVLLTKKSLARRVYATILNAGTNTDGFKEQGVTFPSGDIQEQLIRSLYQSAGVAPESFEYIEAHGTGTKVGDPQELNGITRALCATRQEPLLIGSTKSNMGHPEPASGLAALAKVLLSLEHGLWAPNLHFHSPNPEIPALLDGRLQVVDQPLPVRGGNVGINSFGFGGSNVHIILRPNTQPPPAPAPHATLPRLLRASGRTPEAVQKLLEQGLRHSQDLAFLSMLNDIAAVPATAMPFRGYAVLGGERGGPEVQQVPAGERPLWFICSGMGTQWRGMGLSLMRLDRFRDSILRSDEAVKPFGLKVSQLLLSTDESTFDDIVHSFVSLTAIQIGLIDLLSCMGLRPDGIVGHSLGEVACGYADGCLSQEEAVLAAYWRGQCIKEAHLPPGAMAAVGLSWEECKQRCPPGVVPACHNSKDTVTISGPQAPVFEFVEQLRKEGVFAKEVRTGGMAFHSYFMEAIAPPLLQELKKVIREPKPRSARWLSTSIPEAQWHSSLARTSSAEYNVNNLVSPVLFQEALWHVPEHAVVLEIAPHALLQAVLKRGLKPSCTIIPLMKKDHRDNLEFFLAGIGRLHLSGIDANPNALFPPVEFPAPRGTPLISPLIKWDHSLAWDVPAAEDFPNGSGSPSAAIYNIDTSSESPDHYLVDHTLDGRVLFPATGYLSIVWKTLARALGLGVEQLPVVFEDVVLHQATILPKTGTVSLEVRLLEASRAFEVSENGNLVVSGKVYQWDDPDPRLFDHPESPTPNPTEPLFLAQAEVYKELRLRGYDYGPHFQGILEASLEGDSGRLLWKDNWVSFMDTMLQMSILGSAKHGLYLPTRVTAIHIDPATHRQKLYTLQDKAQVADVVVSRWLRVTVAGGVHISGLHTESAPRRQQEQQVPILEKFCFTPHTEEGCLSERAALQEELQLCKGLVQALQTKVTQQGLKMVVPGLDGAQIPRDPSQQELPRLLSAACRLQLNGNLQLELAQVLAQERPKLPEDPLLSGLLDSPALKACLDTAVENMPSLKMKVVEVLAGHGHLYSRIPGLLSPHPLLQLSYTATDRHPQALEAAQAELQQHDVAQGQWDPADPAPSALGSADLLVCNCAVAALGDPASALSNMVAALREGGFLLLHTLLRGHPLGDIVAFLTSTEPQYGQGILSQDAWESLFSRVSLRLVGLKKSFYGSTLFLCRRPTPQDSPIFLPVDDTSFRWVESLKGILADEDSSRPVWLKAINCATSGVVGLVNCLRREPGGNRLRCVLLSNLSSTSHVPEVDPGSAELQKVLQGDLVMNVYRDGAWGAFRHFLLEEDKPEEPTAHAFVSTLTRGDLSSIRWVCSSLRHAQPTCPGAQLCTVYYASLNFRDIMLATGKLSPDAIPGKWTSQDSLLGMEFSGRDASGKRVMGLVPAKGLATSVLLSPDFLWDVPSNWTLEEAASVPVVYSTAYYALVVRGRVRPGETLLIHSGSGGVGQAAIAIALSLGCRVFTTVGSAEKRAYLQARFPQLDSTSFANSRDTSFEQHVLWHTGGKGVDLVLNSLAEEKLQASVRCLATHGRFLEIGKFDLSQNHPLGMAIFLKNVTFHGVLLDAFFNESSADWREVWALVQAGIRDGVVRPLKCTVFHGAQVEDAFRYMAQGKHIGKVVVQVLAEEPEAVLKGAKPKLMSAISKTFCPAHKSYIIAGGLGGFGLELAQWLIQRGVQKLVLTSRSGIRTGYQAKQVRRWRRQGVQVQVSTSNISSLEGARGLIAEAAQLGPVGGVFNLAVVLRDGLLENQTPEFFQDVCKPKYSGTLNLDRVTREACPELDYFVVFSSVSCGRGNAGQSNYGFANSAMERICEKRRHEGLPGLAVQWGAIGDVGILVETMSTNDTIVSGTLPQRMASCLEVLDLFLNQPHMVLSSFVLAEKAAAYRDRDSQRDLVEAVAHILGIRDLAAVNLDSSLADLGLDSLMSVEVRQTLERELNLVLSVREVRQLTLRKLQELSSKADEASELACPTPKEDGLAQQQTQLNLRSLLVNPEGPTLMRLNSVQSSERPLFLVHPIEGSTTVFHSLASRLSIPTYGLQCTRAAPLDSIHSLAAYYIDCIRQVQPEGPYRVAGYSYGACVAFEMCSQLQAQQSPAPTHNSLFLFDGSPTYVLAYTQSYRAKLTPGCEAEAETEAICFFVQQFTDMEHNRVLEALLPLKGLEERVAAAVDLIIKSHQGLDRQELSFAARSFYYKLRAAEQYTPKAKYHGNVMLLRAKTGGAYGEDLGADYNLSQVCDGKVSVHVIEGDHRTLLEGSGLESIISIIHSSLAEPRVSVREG
Compound,AC50 [5],AC50 [6],AC50 [7],AC50 [8],IC50 (Fatty acid synthase [9]),IC50 (Fatty acid synthase [10]),also measured
CC(C)(C)CN1CCNC(=O)C1CC(=O)NCCc1ccccc1F (stereo not given),,,,,,,EC50 (cells [1]): > 29.9 µM (inactive); IC50 (cells [2]): > 29.9 µM (inactive)
CC(=O)N(C1=C(N)C(=O)c2ccccc2C1=O)c1ccccc1,,,,,,,EC50 (Protein RecA): 2.18 µM (active); IC50 [3]: 10.4 µM (active); AC50 [4]: 3.46 µM (active)
Cc1ccc(S(=O)(=O)N2CCC(=O)N(CCOC(=O)Nc3cccc(Cl)c3)CC2)cc1,4.6 µM (active),3.12 µM (active),4.11 µM (active),7.72 µM (active),,,
O=C(/C=C/c1cc([N+](=O)[O-])ccc1OC(F)F)Nc1cccc2ccccc12,,,,,24.6 µM (inactive),61.9 µM (inactive),
CCN1CCN(S(=O)(=O)c2ccc(Cl)c(C(=O)N(C)Cc3ccc(C(C)(C)C)cc3)c2)CC1,,,,,13.5 µM (active),17.3 µM (active),
C[C@H](CO)N1C[C@H](C)[C@@H](CN(C)C(=O)NC2CCCCC2)Oc2c(NC(=O)Nc3ccccc3)cccc2C1=O,,,,,4.16 µM (active),3.04 µM (active),
C#CCN(C[C@H]1[C@H](OC(=O)NC2CCCC2)[C@H](OC(=O)NC2CCCC2)C[C@H]2C(=O)N(c3ccccc3)C(=O)[C@@H]12)S(=O)(=O)c1ccc(C)cc1,,,,,47.5 µM (inactive),23 µM (inactive),
Cc1cc(C)c(S(=O)(=O)/N=C2\C=C(NS(=O)(=O)c3ccccc3)C(=O)c3ccccc32)c(C)c1,,,,,,,IC50 [3]: 31.1 µM (active)
Fc1ccc(C(OCCN2CCN(CCCc3ccccc3)CC2)c2ccc(F)cc2)cc1,8.74 µM (active),8.27 µM (active),13 µM (active),12.3 µM (active),,,AC50 [11]: 3.05 µM (active); EC50 [12]: > 120 µM (not active); AC50 [13]: 8.11 µM (active); EC50 [14]: 9.61 µM (active); AC50 [15]: 14.5 µM (active); AC50 [16]: 38.8 µM (active); EC50 [17]: > 120 µM (not active); AC50 [18]: 6.17 µM (active)
COc1ccc(C(O)(CCC(C)C)C(CN2CCOCC2)c2ccccc2)cc1 (stereo not given),23.3 µM (active),5.79 µM (active),23.8 µM (active),40.3 µM (active),,,AC50 [15]: 51.9 µM (active)
